Experimental findings from US10988477B2 (Merck Patent GmbH, priority 2018, dated 2021) are described below.

Test [1] deals with intracellular GCN2 (phosphorylation of the GCN2 substrate eIF2α) (Homo sapiens, UniProt Q9P2K8). In words: GCN2 cellular inhibition assay (AlphaScreen SureFire P-eIF2α Ser51, borrelidin-treated U2OS cells). Format: cell-based. Summed up: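 Compound effect on GCN2 is gauged by eIF2α Ser51 phosphorylation in borrelidin-challenged U2OS cells (10 μM, 1 h). Top compound level is 40 μM final.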
Sequence of intracellular GCN2 (phosphorylation of the GCN2 substrate eIF2α) (Q9P2K8 whole entry): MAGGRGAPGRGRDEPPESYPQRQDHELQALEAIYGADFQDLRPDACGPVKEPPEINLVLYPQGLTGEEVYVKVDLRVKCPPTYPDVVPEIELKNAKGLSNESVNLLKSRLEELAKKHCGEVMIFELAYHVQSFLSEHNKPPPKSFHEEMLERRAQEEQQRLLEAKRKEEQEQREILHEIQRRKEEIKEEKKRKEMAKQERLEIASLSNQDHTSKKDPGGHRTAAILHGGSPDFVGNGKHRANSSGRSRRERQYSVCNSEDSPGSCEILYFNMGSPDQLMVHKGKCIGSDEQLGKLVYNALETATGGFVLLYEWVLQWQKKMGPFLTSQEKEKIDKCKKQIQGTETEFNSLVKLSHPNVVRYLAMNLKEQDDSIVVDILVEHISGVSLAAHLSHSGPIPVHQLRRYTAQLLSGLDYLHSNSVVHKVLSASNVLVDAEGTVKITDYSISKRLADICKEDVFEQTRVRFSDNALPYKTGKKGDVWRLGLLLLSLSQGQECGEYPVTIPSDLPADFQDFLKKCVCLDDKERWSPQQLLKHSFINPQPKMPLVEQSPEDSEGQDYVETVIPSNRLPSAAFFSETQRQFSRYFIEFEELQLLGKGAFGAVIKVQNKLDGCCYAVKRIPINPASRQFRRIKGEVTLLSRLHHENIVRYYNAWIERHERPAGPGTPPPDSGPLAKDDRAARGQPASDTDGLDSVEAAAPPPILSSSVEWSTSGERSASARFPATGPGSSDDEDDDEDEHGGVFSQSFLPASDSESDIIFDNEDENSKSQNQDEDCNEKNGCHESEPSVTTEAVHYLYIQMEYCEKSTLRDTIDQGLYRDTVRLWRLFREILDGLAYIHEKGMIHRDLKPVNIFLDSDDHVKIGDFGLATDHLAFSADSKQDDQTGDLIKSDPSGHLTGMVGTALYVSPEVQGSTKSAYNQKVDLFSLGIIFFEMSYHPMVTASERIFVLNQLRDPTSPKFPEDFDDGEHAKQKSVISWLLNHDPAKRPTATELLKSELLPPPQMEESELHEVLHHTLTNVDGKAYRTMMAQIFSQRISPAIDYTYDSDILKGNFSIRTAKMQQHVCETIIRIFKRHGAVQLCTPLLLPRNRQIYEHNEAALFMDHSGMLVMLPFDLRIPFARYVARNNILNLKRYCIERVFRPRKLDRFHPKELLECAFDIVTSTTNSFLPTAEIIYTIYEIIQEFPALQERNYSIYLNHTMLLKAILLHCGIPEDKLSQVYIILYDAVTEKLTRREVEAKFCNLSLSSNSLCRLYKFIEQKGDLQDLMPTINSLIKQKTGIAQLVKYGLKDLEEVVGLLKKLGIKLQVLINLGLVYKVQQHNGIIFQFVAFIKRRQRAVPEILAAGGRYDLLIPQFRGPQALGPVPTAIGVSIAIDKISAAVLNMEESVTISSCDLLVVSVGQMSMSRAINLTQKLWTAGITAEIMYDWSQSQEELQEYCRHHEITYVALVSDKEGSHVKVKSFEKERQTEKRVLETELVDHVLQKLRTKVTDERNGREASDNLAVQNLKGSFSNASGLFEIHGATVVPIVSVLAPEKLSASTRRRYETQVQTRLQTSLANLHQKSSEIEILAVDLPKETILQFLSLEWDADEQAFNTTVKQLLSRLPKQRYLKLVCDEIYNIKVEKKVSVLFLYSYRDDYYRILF
A general note: In Alpha technology, singlet oxygen from a donor bead excites a nearby acceptor bead.

Test [2] addresses GCN2 kinase (Homo sapiens, UniProt Q9P2K8). As to the kind of experiment: GCN2 enzyme inhibition assay (Transcreener ADP2 fluorescence polarization). As to conditions: 280 μM ATP. Format: biochemical. Summed up: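 Run at 25 °C in 25 mM Tris-HCl pH 7.5, 50 mM NaCl, 10 mM MgCl2, 1 mM DTT with 4 nM GCN2, 280 μM ATP and 200 μM (RS)7 peptide; compound (0–8 μM final) preincubated 10 min, reaction 1 h. ADP read by antibody/tracer FP; IC50 and Ki(app) from tight-binding fit.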
(In general: Polarisation of emitted light reports the rotation of a fluorescent probe.)

[3] abbreviates: compounds of Formula II, biomarker assay, phosphorylated eIF2α Ser51 in borrelidin-treated U2OS cells.
Setting [4] is: compounds of Formula II, 4 nM GCN2 kinase.
Setting [5] is: compounds of Formula IV, biomarker assay, phosphorylated eIF2α Ser51 in borrelidin-treated U2OS cells.
The mark [6] stands for this setting: Enzyme activity for compounds of Formula IV, Ki(app), 25° C.

SMILES strings stand for the structures. Where two headings read alike, the source gives them in different places. Some results are limits rather than exact numbers.

Sequence of GCN2 kinase (Q9P2K8 whole entry): as above

`FC(F)c1ccc2ncc(-c3cc(N4CCc5ccccc54)ncn3)n2n1` [II-20, 6-(Difluoromethyl)-3-(6-(indolin-1-yl)pyrimidin-4-yl)imidazo[1,2-b]pyridazine]: in test [1] (setting [3]), the IC50 (as a rule, the point on the concentration scale where inhibition reaches its midpoint) was over 5 µM. In test [2] (setting [4]), this compound gave a Ki of 10 to 1000 nM.

Regarding `FC(F)(F)c1cn2c(-c3nccc(N4CCC(c5cn[nH]c5)CC4)n3)cnc2cn1` [IV-680, 3-(4-(4-(1H-Pyrazol-4-yl)piperidin-1-yl)pyrimidin-2-yl)-6-(trifluoromethyl)imidazo[1,2-a]pyrazine], in test [1] (setting [5]), the IC50 lay in the range of 0.5 to 5 µM. In test [2] (setting [6]), this compound yielded a Ki of 10 to 100 nM.

On to `CS(=O)(=O)NC[C@@H]1CN(c2ccnc(-c3cnc4ccc(C(F)F)nn34)c2)CCO1` [II-110, (S)—N-((4-(2-(6-(Difluoromethyl)imidazo[1,2-b]pyridazin-3-yl)pyridin-4-yl)morpholin-2-yl)methyl)methanesulfonamide], for which the IC50 in test [1] (setting [3]) is under 0.5 µM. In test [2] (setting [4]), this compound showed a Ki of under 10 nM.

As to `CS(=O)(=O)NCC1CCCN(c2cc(-c3cnc4ccc(C(F)F)nn34)cc(N3CC4(CCN4)C3)n2)C1` (stereo not drawn) [II-67, N-((1-(4-(6-(Difluoromethyl)imidazo[1,2-b]pyridazin-3-yl)-6-(1,6-diazaspiro[3.3]heptan-6-yl)pyridin-2-yl)piperidin-3-yl)methyl)methanesulfonamide], in test [1] (setting [3]), the IC50 was under 0.5 µM. The compound further registered a Ki in test [2] (setting [4]) of under 10 nM.

Regarding `CC(NS(C)(=O)=O)C1CCCN(c2cc(-c3cnc4ccc(C(F)F)nn34)ccn2)C1` (stereo not drawn) [II-134, N-(1-(1-(4-(6-(Difluoromethyl)imidazo[1,2-b]pyridazin-3-yl)pyridin-2-yl)piperidin-3-yl)ethyl)methanesulfonamide], the IC50 in test [1] (setting [3]) lay in the range of 0.5 to 5 µM. Moreover, the Ki in test [2] (setting [4]) was 10 to 1000 nM.

In test [1] (setting [3]), `CS(=O)(=O)NCC1CCCN(c2cc(-c3cnc4ccc(C(F)F)nn34)cc(O)n2)C1` (stereo not drawn) [II-141, N-((1-(4-(6-(difluoromethyl)imidazo[1,2-b]pyridazin-3-yl)-6-oxo-1,6-dihydropyridin-2-yl)piperidin-3-yl)methyl)methanesulfonamide] had an IC50 of 0.5 to 5 µM. The Ki in test [2] (setting [4]) is under 10 nM.

In turn, `OC[C@H]1C[C@@H](C(F)(F)F)CN(c2cc(-c3cnc4ccc(C(F)F)nn34)ncn2)C1` [II-315, ((3S,5R)-1-(6-(6-(Difluoromethyl)imidazo[1,2-b]pyridazin-3-yl)pyrimidin-4-yl)-5-(trifluoromethyl)piperidin-3-yl)methanol] had an IC50 in test [1] (setting [3]) of over 5 µM. Moreover, in test [2] (setting [4]), the Ki was in the range of 10 to 1000 nM.

For `CC(=O)N1CCN(c2cc(-c3cnn4ccc(C(F)F)nc34)ncn2)CC1` [III-1, 1-[4-[6-[5-(Difluoromethyl)pyrazolo[1,5-a]pyrimidin-3-yl]pyrimidin-4-yl]piperazin-1-yl]ethanone], the IC50 in test [1] (compounds of Formula III, U2OS cells, 10 μM borrelidin, 1 h, read-out: GCN2 Biomarker (IC50)) is over 5 µM. This compound registered a Ki in test [2] (compounds of Formula III, 4 nM GCN2 kinase) of 10 to 1000 nM.

Turning to `FC(F)c1ccc2ncc(-c3cc(C4CCOCC4)ncn3)n2n1` [II-358, 6-(Difluoromethyl)-3-(6-tetrahydropyran-4-ylpyrimidin-4-yl)imidazo[1,2-b]pyridazine], in test [1] (setting [3]), the IC50 is over 5 µM. The compound also yielded a Ki in test [2] (setting [4]) of 10 to 1000 nM.

Compound `OC1(c2cn[nH]c2)CCCN(c2ccnc(-c3cnc4cnc(C(F)(F)F)cn34)n2)C1` (stereo not drawn) [IV-386, 3-(1H-Pyrazol-4-yl)-1-(2-(6-(trifluoromethyl)imidazo[1,2-a]pyrazin-3-yl)pyrimidin-4-yl)piperidin-3-ol] registered an IC50 in test [1] (setting [5]) of 0.5 to 5 µM. The compound also returned a Ki in test [2] (setting [6]) of 10 to 100 nM.

In turn, `FC(F)c1ccc2ncc(-c3cc(N4CCOC(Cn5cnnc5)C4)ncn3)n2n1` (stereo not drawn) [II-29, 2-((4H-1,2,4-Triazol-4-yl)methyl)-4-(6-(6-(difluoromethyl)imidazo[1,2-b]pyridazin-3-yl)pyrimidin-4-yl)morpholine] returned an IC50 in test [1] (setting [3]) of over 5 µM. The compound further came in with a Ki in test [2] (setting [4]) of 10 to 1000 nM.

On to `CC(=O)N1CCN(c2ccnc(-c3cnc4cnc(Br)cn34)n2)CC1` [IV-32, 1-(4-(2-(6-Bromoimidazo[1,2-a]pyrazin-3-yl)pyrimidin-4-yl)piperazin-1-yl)ethan-1-one], for which the IC50 in test [1] (setting [5]) was in the range of 0.5 to 5 µM. The compound also showed a Ki in test [2] (setting [6]) of 100 to 1000 nM.
